# Reference: US20250163104A1, “MACROCYCLIC IMMUNOMODULATORS” (priority 2021, published 2025)
# Where a SMILES comes first, the peptide text is derived from it. Bridges are numbered along the chain shown (N, C = ends). [ ]: non-standard residue; d: D form. ξ: configuration not given here. Bip = N[C@@H](Cc1ccc(-c2ccccc2)cc1)C(=O)O; Cit = NC(=O)NCCC[C@H](N)C(=O)O; Ile(3ξ) = CCC(C)[C@H](N)C(=O)O; ξIle = CC[C@H](C)C(N)C(=O)O; Orn = NCCC[C@H](N)C(=O)O; Dab = NCC[C@H](N)C(=O)O; Dap = NC[C@H](N)C(=O)O
# Molecular target: T1, human PD-1 / PD-L1-Ig binding on Jurkat cell line over-expressing human PD-1 (Jurkat-PD-1) (Homo sapiens, UniProt Q15116)
# T1 construct: expressed in transfected cells; host or cells: Jurkat
# Assay: Jurkat-PD-1 Cell Binding High-Content Screening Assay (CBA)
# Format: cell-based
# Details: Jurkat-PD-1 cells, PE-labeled PD-L1-Ig 20 nM final; read-out: Jurkat HPD1_PDL1 IC50
# In short: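 Binding of fluorescent PD-L1-Ig (phycoerythrin linked via the Ig tag, 20 nM final) to PD-1-overexpressing Jurkat cells was imaged after a 2 h, 37° C compound pretreatment and 1 hour ligand incubation.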
# T1 sequence (Q15116 25-288): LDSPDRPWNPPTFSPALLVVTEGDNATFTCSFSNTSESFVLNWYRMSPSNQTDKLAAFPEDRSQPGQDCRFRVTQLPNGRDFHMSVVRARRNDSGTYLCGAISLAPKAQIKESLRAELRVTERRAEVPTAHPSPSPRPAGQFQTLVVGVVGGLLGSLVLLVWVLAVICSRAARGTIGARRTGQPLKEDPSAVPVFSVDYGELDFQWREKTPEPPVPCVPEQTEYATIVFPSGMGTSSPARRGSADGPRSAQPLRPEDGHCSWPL
row,Compound,IC50
1,CC(C)C[C@@H]1NC(=O)[C@H](CCN)NC(=O)[C@@H](CC(C)C)NC(=O)[C@H](CCCN)NC(=O)[C@H](CCCNC(N)=O)NC(=O)[C@H](Cc2ccc(-c3ccccc3)cc2)NC(=O)[C@H](C(C)C)NC(=O)[C@H](Cc2c[nH]c3ccccc23)NC(=O)[C@H](CC(N)=O)NC(=O)[C@H](Cc2ccc(O)cc2)NC(=O)[C@H](CN)NC(=O)CSC[C@@H](C(=O)N[C@@H](C)C(N)=O)NC(=O)[C@H]([C@@H](C)O)NC(=O)[C@H](C(C)C)NC1=O [Compound 1088] ({CH2CO}-[Dap]YNWV[Bip][Cit][Orn][dL][Dab]LVTCA-NH2; thioether N-14),23.7 nM
2,CC[C@H](C)C1NC(=O)[C@H](Cc2ccc(-c3ccccc3)cc2)NC(=O)[C@H](C(C)C)NC(=O)[C@H](Cc2c[nH]c3ccccc23)NC(=O)[C@H](CC(N)=O)NC(=O)[C@H](Cc2ccc(O)cc2)NC(=O)[C@H](CN)NC(=O)CSC[C@@H](C(=O)N[C@@H](C)C(N)=O)NC(=O)[C@H]([C@@H](C)O)NC(=O)[C@H](C(C)C)NC(=O)[C@H](CC(C)C)NC(=O)[C@H](CCN)NC(=O)[C@@H](CC(C)C)NC(=O)[C@H](CCN)NC1=O (stereo partly drawn) [Compound 1090] ({CH2CO}-[Dap]YNWV[Bip][ξIle][Dab][dL][Dab]LVTCA-NH2; thioether N-14),28 nM
3,CCC(C)[C@@H]1NC(=O)[C@H](Cc2ccc(-c3ccccc3)cc2)NC(=O)[C@H](C(C)C)NC(=O)[C@H](Cc2c[nH]c3ccccc23)NC(=O)[C@H](CC(N)=O)NC(=O)[C@H](Cc2ccc(O)cc2)NC(=O)[C@H](CN)NC(=O)CSC[C@@H](C(=O)N[C@@H](C)C(N)=O)NC(=O)[C@H]([C@@H](C)O)NC(=O)[C@H](C(C)C)NC(=O)[C@H](CC(C)C)NC(=O)[C@H](CCN)NC(=O)[C@@H](CC(C)C)NC(=O)[C@H](CCCCN)NC1=O (stereo partly drawn) [Compound 1091] ({CH2CO}-[Dap]YNWV[Bip][Ile(3ξ)]K[dL][Dab]LVTCA-NH2; thioether N-14),21.8 nM
4,CC(C)C[C@@H]1NC(=O)[C@H](Cc2c[nH]c3ccccc23)NC(=O)[C@H](CC(=O)O)NC(=O)[C@H](Cc2ccc(O)cc2)NC(=O)[C@H](Cc2ccccc2)NC(=O)CSC[C@@H](C(=O)N[C@@H](C)C(N)=O)NC(=O)[C@H]([C@@H](C)O)NC(=O)[C@H](C(C)C)NC(=O)[C@H](CC(C)C)NC(=O)[C@H](CC(N)=O)NC(=O)[C@@H](C)NC(=O)[C@H](CCCN)NC(=O)[C@H](C(C)C)NC(=O)[C@H](Cc2ccc(-c3ccccc3)cc2)NC1=O [Compound 1092] ({CH2CO}-FYDWL[Bip]V[Orn][dA]NLVTCA-NH2; thioether N-14),229 nM
5,CC(C)C[C@@H]1NC(=O)[C@H](Cc2c[nH]c3ccccc23)NC(=O)[C@H](CC(=O)O)NC(=O)[C@H](Cc2ccc(O)cc2)NC(=O)[C@H](Cc2ccccc2)NC(=O)CSC[C@@H](C(=O)NCC(N)=O)NC(=O)[C@H](CO)NC(=O)[C@H](C(C)C)NC(=O)[C@H](CC(C)C)NC(=O)[C@H](CC(N)=O)NC(=O)[C@@H](C)NC(=O)[C@H](CCCN)NC(=O)[C@H](C(C)C)NC(=O)[C@H](Cc2ccc(-c3ccccc3)cc2)NC1=O [Compound 1093] ({CH2CO}-FYDWL[Bip]V[Orn][dA]NLVSCG-NH2; thioether N-14),120 nM
6,CC(C)C[C@@H]1NC(=O)[C@H](Cc2c[nH]c3ccccc23)NC(=O)[C@H](CC(=O)O)NC(=O)[C@H](Cc2ccc(O)cc2)NC(=O)[C@H](Cc2ccccc2)NC(=O)CSC[C@@H](C(=O)N[C@@H](C)C(N)=O)NC(=O)[C@H](CO)NC(=O)[C@H](C(C)C)NC(=O)[C@H](CC(C)C)NC(=O)[C@H](CCN)NC(=O)[C@@H](C)NC(=O)[C@H](CCCN)NC(=O)[C@H](C(C)C)NC(=O)[C@H](Cc2ccc(-c3ccccc3)cc2)NC1=O [Compound 1095] ({CH2CO}-FYDWL[Bip]V[Orn][dA][Dab]LVSCA-NH2; thioether N-14),146 nM
7,CC(C)C[C@@H]1NC(=O)[C@H](Cc2c[nH]c3ccccc23)NC(=O)[C@H](CC(=O)O)NC(=O)[C@H](Cc2ccc(O)cc2)NC(=O)[C@H](Cc2ccccc2)NC(=O)CSC[C@@H](C(=O)NCC(N)=O)NC(=O)[C@H](CO)NC(=O)[C@H](C(C)C)NC(=O)[C@H](CC(C)C)NC(=O)[C@H](CCN)NC(=O)[C@@H](C)NC(=O)[C@H](CCCN)NC(=O)[C@H](C(C)C)NC(=O)[C@H](Cc2ccc(-c3ccccc3)cc2)NC1=O [Compound 1096] ({CH2CO}-FYDWL[Bip]V[Orn][dA][Dab]LVSCG-NH2; thioether N-14),68.8 nM
8,CC(C)C[C@@H]1NC(=O)[C@H](Cc2c[nH]c3ccccc23)NC(=O)[C@H](CC(=O)O)NC(=O)[C@H](Cc2ccc(O)cc2)NC(=O)[C@H](Cc2ccccc2)NC(=O)CSC[C@@H](C(=O)N[C@@H](C)C(N)=O)NC(=O)[C@H]([C@@H](C)O)NC(=O)[C@H](C(C)C)NC(=O)[C@H](CC(C)C)NC(=O)[C@H](CCN)NC(=O)[C@@H](C)NC(=O)[C@H](CN)NC(=O)[C@H](C(C)C)NC(=O)[C@H](Cc2ccc(-c3ccccc3)cc2)NC1=O [Compound 1097] ({CH2CO}-FYDWL[Bip]V[Dap][dA][Dab]LVTCA-NH2; thioether N-14),132 nM

# More lines, in order of falling IC50, values ahead:
row,IC50,Compound
1,115 nM,CC(C)C[C@@H]1NC(=O)[C@H](Cc2c[nH]c3ccccc23)NC(=O)[C@H](CC(=O)O)NC(=O)[C@H](Cc2ccc(O)cc2)NC(=O)[C@H](Cc2ccccc2)NC(=O)CSC[C@@H](C(=O)NCC(N)=O)NC(=O)[C@H](CO)NC(=O)[C@H](C(C)C)NC(=O)[C@H](CC(C)C)NC(=O)[C@H](CCN)NC(=O)[C@@H](C)NC(=O)[C@H](CN)NC(=O)[C@H](C(C)C)NC(=O)[C@H](Cc2ccc(-c3ccccc3)cc2)NC1=O [Compound 1098] ({CH2CO}-FYDWL[Bip]V[Dap][dA][Dab]LVSCG-NH2; thioether N-14)
2,36.6 nM,CC(C)C[C@@H]1NC(=O)[C@H](CCN)NC(=O)[C@@H](CC(C)C)NC(=O)[C@H](CCCN)NC(=O)[C@H](C(C)C)NC(=O)[C@H](Cc2ccc(-c3ccccc3)cc2)NC(=O)[C@H](C(C)C)NC(=O)[C@H](Cc2c[nH]c3ccccc23)NC(=O)[C@H](CC(N)=O)NC(=O)[C@H](Cc2ccc(O)cc2)NC(=O)[C@H](CN)NC(=O)CSC[C@@H](C(=O)N[C@@H](C)C(N)=O)NC(=O)[C@H]([C@@H](C)O)NC(=O)[C@H](C(C)C)NC1=O [Compound 1087] ({CH2CO}-[Dap]YNWV[Bip]V[Orn][dL][Dab]LVTCA-NH2; thioether N-14)
3,26.7 nM,CC[C@H](C)C1NC(=O)[C@H](Cc2ccc(-c3ccccc3)cc2)NC(=O)[C@H](C(C)C)NC(=O)[C@H](Cc2c[nH]c3ccccc23)NC(=O)[C@H](CC(N)=O)NC(=O)[C@H](Cc2ccc(O)cc2)NC(=O)[C@H](CN)NC(=O)CSC[C@@H](C(=O)N[C@@H](C)C(N)=O)NC(=O)[C@H]([C@@H](C)O)NC(=O)[C@H](C(C)C)NC(=O)[C@H](CC(C)C)NC(=O)[C@H](CCN)NC(=O)[C@@H](CC(C)C)NC(=O)[C@H](CN)NC1=O (stereo partly drawn) [Compound 1089] ({CH2CO}-[Dap]YNWV[Bip][ξIle][Dap][dL][Dab]LVTCA-NH2; thioether N-14)
4,20.5 nM,CC(C)C[C@@H]1NC(=O)[C@H](CCN)NC(=O)[C@@H](CC(C)C)NC(=O)[C@H](CCN)NC(=O)[C@H](C(C)C)NC(=O)[C@H](Cc2ccc(-c3ccccc3)cc2)NC(=O)[C@H](C(C)C)NC(=O)[C@H](Cc2c[nH]c3ccccc23)NC(=O)[C@H](CC(N)=O)NC(=O)[C@H](Cc2ccc(O)cc2)NC(=O)[C@H](CC(N)=O)NC(=O)CSC[C@@H](C(=O)NCC(N)=O)NC(=O)[C@H]([C@@H](C)O)NC(=O)[C@H](C(C)C)NC1=O [Compound 1086] ({CH2CO}-NYNWV[Bip]V[Dab][dL][Dab]LVTCG-NH2; thioether N-14)
